{"source": "paper PMC6241861", "about": "(International Journal of Nanomedicine, 2018)", "origin": "cited, not measured here", "key": {"[1]": {"target": "T1, human neutrophil elastase (Homo sapiens, UniProt P08246)", "T1 sequence (P08246 30-267)": "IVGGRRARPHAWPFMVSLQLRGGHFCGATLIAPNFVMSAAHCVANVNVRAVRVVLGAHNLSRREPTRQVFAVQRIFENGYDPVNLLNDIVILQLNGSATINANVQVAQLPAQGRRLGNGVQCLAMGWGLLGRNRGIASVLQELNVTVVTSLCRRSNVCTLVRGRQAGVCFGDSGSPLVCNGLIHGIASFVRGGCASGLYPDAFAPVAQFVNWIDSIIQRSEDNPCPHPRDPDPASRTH"}, "[2]": {"target": "Pseudomonas aeruginosa elastase (Pseudomonas aeruginosa, UniProt P14756)", "sequence (P14756 198-498)": "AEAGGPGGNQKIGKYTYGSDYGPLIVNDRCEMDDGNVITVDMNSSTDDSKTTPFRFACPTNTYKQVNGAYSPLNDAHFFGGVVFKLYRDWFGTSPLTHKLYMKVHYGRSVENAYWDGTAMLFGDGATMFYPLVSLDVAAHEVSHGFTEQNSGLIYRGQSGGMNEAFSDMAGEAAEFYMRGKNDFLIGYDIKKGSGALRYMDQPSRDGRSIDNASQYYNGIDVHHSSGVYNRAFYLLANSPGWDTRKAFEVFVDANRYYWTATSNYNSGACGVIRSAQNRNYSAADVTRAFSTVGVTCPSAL"}}}
{"substance": "LL37", "values": [{"measurement": "Degradation by leukocyte elastase [HNE]", "setting": "[1]", "value": "degraded"}, {"measurement": "Degradation by P. aeruginosa elastase [PE]", "setting": "[2]", "value": "degraded"}]}
